Measured values published in paper PMC8058344, “ARIH1 signaling promotes anti-tumor immunity by targeting PD-L1 for proteasomal degradation” (Nature Communications, 2021).

Key:
PD-L1 Ser279 = test: Immunoblots with phospho-specific antibody against PD-L1 Ser279; assay type: cell-based, human; conditions: endogenous (H1975, 2 h) and recombinant (HEK293T, 10 μM, 2 h) PD-L1
Description: Fig. 2 Phosphorylation on S279/S283 impairs the stability of PD-L1. a Mapping PD-L1 phosphorylation sites following ES-072 treatment. HEK293T cells were transfected with Flag-PD-L1 and treated with 10 μM ES-072 for 48 h. Immunoprecipitated PD-L1 was analyzed by mass spectrometry following phosphopeptide enrichment. Peptide ionization data corresponding to Ser279/283 are shown. b Schematic diagram of phosphorylated sites on PD-L1. Full-length PD-L1 was separated into an extracellular domain (ECD) and intracellular domain (ICD). SP: signal peptide; TM: transmembrane domain. c Schematic diagram of phosphorylated sites, S279 and S283 in the ICD of PD-L1. Positions of phosphorylated sites were labeled in red. […] Scale bars represent 50 μm. i, j Quantification of IHC analysis for p-PD-L1 (Ser279) (i) and PD-L1 (j) in h. […]
For western blot analysis, cells were collected and washed with PBS, then lysed in radioimmunoprecipitation assay (RIPA) buffer (1% Triton X-100, 100 mM Tris-HCl pH 8.8, 100 mM NaCl, 0.5 mM EDTA). […] The supernatant was collected and the protein concentration was measured by bicinchoninic acid reaction. […] Signals were detected using chemiluminescence reagents (#4AW001-500, 4A649 Biotech, Co.).

CMET = CMET (Homo sapiens, UniProt P08581); test: In vitro kinase specificity profiling; assay type: biochemical
PD-L1 in U937 cells = test: PD-L1 levels in U937 cells by western blotting and flow cytometry; assay type: cell-based, human; conditions: western blotting and flow cytometry, 10 μM, 12 h
Description: Fig. 1 EGFR inhibitors were screened to reduce membrane PD-L1 levels. a High-throughput screening of 2125 FDA-approved drugs or drug candidates. U937 cells were incubated with IFNγ (100 ng/mL) for 48 h, treated with the drugs at 10 μM for 12 h. Ruxolitinib (Rux) was used as a positive control. The hit compounds that induced the decrease of PD-L1 levels are shown in blue. The depth of blue represents decreased level of PD-L1. The heatmap represents the targeted pathways obtained from the high-throughput screening, based upon decreased membrane PD-L1 level detected by flow cytometry. b Immunoblotting of PD-L1 in U937 cells treated with ES-072 (ES) or AZD9291 (AZD) at indicated concentrations for 12 h. ES and AZD are EGFR inhibitors. c, d Median fluorescence intensity (MFI) (c) and relative quantification (d) of PD-L1 in U937 cells treated with 10 μM ES-072 or 10 μM AZD9291 for 12 h. Data represent means ± SEM, n = 18, 6 independent repeats, ****P < 0.0001. e–g Immunoblotting (e, f) and flow cytometry (g) analysis of PD-L1 levels in U937 cells treated with 10 μM ES-072 or 10 μM AZD9291 for the indicated times. h, i Immunoblottings (h) of PD-L1 and β-TrCP, relative quantification (i) of PD-L1 MFI in H1975 cells transfected with non-targeting siRNA (si-CTRL) or β-TrCP siRNAs (si-β-TrCP) and treated with or without 10 μM ES-072/AZD9291 for 12 h. Data represent means ± SEM, n = 9, 3 independent repeats, NS: no significant; ****P < 0.0001. j–l Immunoblotting (j) and flow cytometry analysis (k) with relative quantification (l) of PD-L1 in H1975 cells treated with 10 μM ES-072 or AZD9291, and/or 5 μM LY2090314 (LY) for 12 h. LY is a GSK3 inhibitor. […]
For western blot analysis, cells were collected and washed with PBS, then lysed in radioimmunoprecipitation assay (RIPA) buffer (1% Triton X-100, 100 mM Tris-HCl pH 8.8, 100 mM NaCl, 0.5 mM EDTA). […] The supernatant was collected and the protein concentration was measured by bicinchoninic acid reaction. […] Signals were detected using chemiluminescence reagents (#4AW001-500, 4A649 Biotech, Co.). […]

Sequence of CMET (P08581 25-1390): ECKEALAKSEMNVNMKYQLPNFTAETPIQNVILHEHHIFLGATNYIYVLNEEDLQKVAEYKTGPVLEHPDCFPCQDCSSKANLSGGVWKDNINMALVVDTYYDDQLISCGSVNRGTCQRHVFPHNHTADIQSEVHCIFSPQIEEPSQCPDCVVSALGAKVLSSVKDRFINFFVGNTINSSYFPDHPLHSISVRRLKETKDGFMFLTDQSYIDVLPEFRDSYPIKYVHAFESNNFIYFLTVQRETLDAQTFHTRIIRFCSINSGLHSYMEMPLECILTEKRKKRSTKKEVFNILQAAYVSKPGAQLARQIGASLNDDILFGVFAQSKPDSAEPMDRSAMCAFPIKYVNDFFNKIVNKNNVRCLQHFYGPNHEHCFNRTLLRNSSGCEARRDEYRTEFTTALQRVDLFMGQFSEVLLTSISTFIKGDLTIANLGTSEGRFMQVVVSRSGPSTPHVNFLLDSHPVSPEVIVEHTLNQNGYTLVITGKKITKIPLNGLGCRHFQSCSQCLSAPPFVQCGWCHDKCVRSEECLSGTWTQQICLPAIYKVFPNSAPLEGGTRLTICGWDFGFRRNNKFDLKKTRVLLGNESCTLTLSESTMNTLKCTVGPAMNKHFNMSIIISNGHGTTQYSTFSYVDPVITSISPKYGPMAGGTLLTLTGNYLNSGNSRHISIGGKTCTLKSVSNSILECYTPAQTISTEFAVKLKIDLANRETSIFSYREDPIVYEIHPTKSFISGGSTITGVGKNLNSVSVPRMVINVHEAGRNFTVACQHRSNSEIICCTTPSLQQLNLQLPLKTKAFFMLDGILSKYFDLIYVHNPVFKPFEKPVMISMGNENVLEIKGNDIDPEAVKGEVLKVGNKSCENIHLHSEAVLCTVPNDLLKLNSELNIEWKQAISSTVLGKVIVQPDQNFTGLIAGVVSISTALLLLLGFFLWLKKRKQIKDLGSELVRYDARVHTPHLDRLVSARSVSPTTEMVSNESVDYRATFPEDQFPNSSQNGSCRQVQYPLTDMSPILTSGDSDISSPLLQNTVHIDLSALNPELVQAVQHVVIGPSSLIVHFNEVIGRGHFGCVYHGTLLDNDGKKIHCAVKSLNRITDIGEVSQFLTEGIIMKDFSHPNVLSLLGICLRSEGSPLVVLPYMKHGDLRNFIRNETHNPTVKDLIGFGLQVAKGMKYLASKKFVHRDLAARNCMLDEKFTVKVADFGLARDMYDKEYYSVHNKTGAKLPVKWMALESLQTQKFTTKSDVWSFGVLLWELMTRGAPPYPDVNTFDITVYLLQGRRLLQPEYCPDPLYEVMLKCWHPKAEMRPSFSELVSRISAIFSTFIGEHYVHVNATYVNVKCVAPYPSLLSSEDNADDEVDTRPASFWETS

## C=CC(=O)Nc1cccc(Nc2nc(Nc3ccc(N4CCN(C)CC4)nc3OC)ncc2C(F)(F)F)c1 [ES-072]
PD-L1 Ser279
  phosphorylation of PD-L1 at Ser279: robust phosphorylation
CMET
  IC50: > 10 µM
PD-L1 in U937 cells
  IFNγ-induced membranal PD-L1 levels: dramatically reduced
